Values of other authors, collected in patent US9517201B2, “Nanocarrier and nanogel compositions” (RUTGERS, THE STATE UNIVERSITY OF NEW JERSEY, priority 2008, dated 2016).
Where a name gives a salt, the structure may show the parent alone.

COc1cccc2c1C(=O)c1c(O)c3c(c(O)c1C2=O)C[C@@](O)(C(=O)CO)C[C@@H]3O[C@H]1C[C@H](N)[C@H](O)[C@H](C)O1 [Doxorubicin Hydrochloride, Doxorubicin hydrochloride]
solubility of Doxorubicin Hydrochloride in water: ~10 mg/mL
